Biological target: T1, Sirt5 (Homo sapiens, UniProt Q9NXA8)
T1 sequence (Q9NXA8 37-310): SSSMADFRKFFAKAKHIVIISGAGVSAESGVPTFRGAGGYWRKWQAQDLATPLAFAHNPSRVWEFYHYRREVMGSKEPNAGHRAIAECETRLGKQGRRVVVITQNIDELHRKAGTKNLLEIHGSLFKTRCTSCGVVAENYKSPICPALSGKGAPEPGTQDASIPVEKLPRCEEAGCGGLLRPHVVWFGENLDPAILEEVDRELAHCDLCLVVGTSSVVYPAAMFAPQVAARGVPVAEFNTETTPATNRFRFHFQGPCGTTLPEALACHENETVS
Test: Sirt5 in vitro deacylation HPLC assay
Assay type: biochemical

IC50: > 500 µM
inhibition at 200 µM (@ 200 µM, read-out: Sirt5 percentual inhibition): -2%
inhibition at 500 µM (@ 500 µM, read-out: Sirt5 percentual inhibition): -1%
Compound: CCCCN(Cc1ccc(C(=O)NO)cc1)C(=O)CCCCn1cc(COc2cccc(Cc3cnc(NC(=O)CSc4nc(C)cc(C)n4)s3)c2)nn1 [Compound 33, 4-((N-Butyl-5-(4-((3-((2-(2-((4,6-dimethylpyrimidin-2-yl)thio)acetamido)thiazol-5-yl)methyl)phenoxy)methyl)-1H-1,2,3-triazol-1-yl)pentanamido)methyl)-N-hydroxybenzamide]

— publication PMC10641818, “Development of First-in-Class Dual Sirt2/HDAC6 Inhibitors as Molecular Tools for Dual Inhibition of Tubulin Deacetylation” (Journal of Medicinal Chemistry, 2023)
